Experimental data from patent publication US20040147006A1, “Peptides that bind to DNA and inhibit DNA replication, and methods of use” (priority 2001, published 2004).
Entries after “also recorded” stand apart in the source; their conditions may differ. Like-named read-outs stand apart in the source and are kept apart here.

How the values were obtained:
[1] = test system: 64 bp enhancer control (SEQ ID NO: 29); test: Peptide band shift (EMSA without T-ag), control oligonucleotide; format: binding; details: 64 bp enhancer control oligonucleotide
Experimental: (§1) Electrophoretic mobility shift assays (EMSA). Double stranded oligonucleotides, ^32P labeled at 5′ termini, were prepared using standard procedures (Sambrook, J., et al., 1989, Cold Spring Harbor Laboratory, Cold Spring Harbor, N.Y.; Sreekumar, K. A., et al., 2000, p. 49-67; In, L. Raptis (ed.), Methods in Molecular Biology; SV40 Protocols; Humana Press; Totowa, N.J.). EMSA rections were conducted using conditions for SV40 in vitro replication (Wobbe, C. R., et al., 1985, Proc. Natl. Acad. Sci. USA 82:5710-571 4). The reactions (20 μl) contained 7 mM MgCl2, 0.5 mM DTT, 4 mM AMP-PNP, 40 mM creatine phosphate (pH 7.6), 0.48 μg of creatine phosphate kinase, 5 μg of bovine serum albumin, 0.8 μg of Hae III-digested pBR322 ([…]; used as a nonspecific competitor), about 25 fmol of double stranded oligonucleotide, T-ag and the indicated amounts of peptide. After a 20-min incubation at 37° C., glutaraldehyde (0.1 % final concentration) was added and the reaction products were further incubated for 5 min. The reactions were stopped by the addition of 5 μl of 6× loading dye II (15% Ficoll, 0.25% bromophenol blue, and 0.25% xylene cyanol; Sambrook, J., et al., 1989, Cold Spring Harbor Laboratory, Cold Spring Harbor, N.Y.) to the reaction mixtures. Samples containing T-ag were applied to 3.5 to 12% gradient polyacrylamide gels and electrophoresed in 0.5% Tris-borate-EDTA (TBE) pH 8.4 for about 1.5 h (10 watts).
Peptide based band shift reactions were identical to those described above except that T-ag was omitted from the reactions and the final glutaraldehyde concentration was reduced to 0.05 %. Moreover, the samples were loaded on 8% polyacryamide gels and electrophoresed in 0.5% TBE pH 8.4 for about 3h (about 200 volts). The gels were dried on Whatman 3 MM paper, subjected to autoradiography and quantitated using a Molecular Dynamics PhosphorImager (Sunnyvale, Calif.).

[2] = test system: double stranded oligonucleotide containing the SV40 core origin (SEQ ID NO: 24); test: Nitrocellulose filter binding of peptide to DNA
Experimental: Nitrocellulose filter binding reactions. Assay for the ability of NLS based peptides to bind to DNA were performed using published methods (Sreekumar, K. A., et al., 2000, In, L. Raptis (ed.), Methods in Molecular Biology: SV40 Protocols; Humana Press, Totowa, N.J. p. 49-67). Reactions (20 μl) contained 7 mM MgCl2, 0.5 mM DTT, 4 mM AMP-PNP, 40 mM creatine phosphate (di-Tris salt pH7.7), 0.48 μg of creatine phosphokinase, 0.2 mg of bovine serum albumin per ml, 0.8 μg of Hae III-digested pBR322 DNA, about 25 fmol of a given oligonucleotide (about 10^6 cpm/pmol) and the indicated peptide. After incubation for 20 min at 37° C., the mixtures were filtered under suction through alkali-treated nitrocellulose filters (Millipore type HAWP; pore size, 0.4 μm; stored in 100 mM Tris-HCl, pH7.5). The filters were then washed with 5 ml of 100 mM Tris-HCl, pH 7.5, and were dried and counted in a Beckman LS 3801 scintillation counter.

[3] = molecular target: T1, T-ag helicase ATPase (Simian virus 40, UniProt P03070); format: biochemical, SV40; details: duplicate lanes, FIG. 13
T1 construct: made in house
T1 sequence (P03070 whole entry): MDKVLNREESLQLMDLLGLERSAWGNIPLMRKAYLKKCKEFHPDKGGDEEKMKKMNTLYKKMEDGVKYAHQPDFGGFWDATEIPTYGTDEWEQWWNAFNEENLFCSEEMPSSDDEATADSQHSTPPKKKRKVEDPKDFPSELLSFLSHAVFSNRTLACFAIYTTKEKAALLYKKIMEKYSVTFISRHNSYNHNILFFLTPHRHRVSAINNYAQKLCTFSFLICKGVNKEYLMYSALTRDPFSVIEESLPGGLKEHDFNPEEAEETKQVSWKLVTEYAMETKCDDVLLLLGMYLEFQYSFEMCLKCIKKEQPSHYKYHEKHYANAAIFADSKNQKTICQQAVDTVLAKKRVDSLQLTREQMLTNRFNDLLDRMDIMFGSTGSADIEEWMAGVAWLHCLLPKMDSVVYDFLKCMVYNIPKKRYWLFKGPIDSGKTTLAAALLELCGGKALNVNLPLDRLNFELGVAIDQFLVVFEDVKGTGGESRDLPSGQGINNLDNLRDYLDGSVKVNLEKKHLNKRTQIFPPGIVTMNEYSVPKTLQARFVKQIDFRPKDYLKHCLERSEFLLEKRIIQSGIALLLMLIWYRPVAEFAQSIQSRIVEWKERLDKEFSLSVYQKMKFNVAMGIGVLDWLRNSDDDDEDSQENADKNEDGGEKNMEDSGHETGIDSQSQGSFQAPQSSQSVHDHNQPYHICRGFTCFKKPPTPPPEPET
Experimental: A method for measuring ATP hydrolysis involves incubating T-ag with a ^32P-labeled ATP, cross-linking with gluteraldehyde, removing unincorporated nucleotides by passing the reaction products over a Bio-Spin P-30 column, drying the eluate in a Speedvac, resuspending the samples in formic acid, and performing thin layer chromatography on PEI (polyethyleneimine) plates. Using autoradiography, the amount of ATP, ADP and AMP associated with T-ag was determined.

[4] = test system: 64 bp SV40 core origin (SEQ ID NO: 24); test: Peptide band shift (EMSA without T-ag), core origin; format: binding; details: for Peptide/DNA complex formation in peptide band shift: SV40 core origin, 13-mer set at 1 mM final concentration (20 nmoles); for DNA binding seen in EMSA without cross-linking: absence of cross-linking with glutaraldehyde
Experimental: as §1
[…] Moreover, the samples were loaded on 8% polyacryamide gels and electrophoresed in 0.5% TBE pH 8.4 for about 3h (about 200 volts). The gels were dried on Whatman 3 MM paper, subjected to autoradiography and quantitated using a Molecular Dynamics PhosphorImager (Sunnyvale, Calif.).

[5] = molecular target: T2, T-ag oligomerization on 64-bp oligonucleotide containing the SV40 core origin (Simian virus 40, UniProt P03070); format: biochemical; details: T-ag 6 pmol; for Effect on T-ag oligomerization, mutant set (FIG. 11 Panel B): 64-bp SV40 core origin, peptide concentration not given; for Effect on T-ag oligomerization (hexamer and double hexamer formation): peptide final concentration 1 mM (20 nmoles)
T2 construct: made in house
T2 sequence (P03070 whole entry): as above
Experimental: as §1

[6] = test system: double-stranded DNA; test: Binding of NLS peptides to double-stranded DNA
Experimental: (§2) In the examples that follow, peptides were designed and synthesized to contain NLS regions from a variety of viral and human proteins, in particular, T-ag of SV40, and each of the proteins encoded by the human tumor suppressor p53 gene (SEQ ID NO: 1), the E1 protein encoded by bovine papillomavirus (SEQ ID NO: 2), and a set of control peptides. Binding assays of these peptides were performed with a 64 bp oligonucleotide derived from the SV40 core origin (SEQ ID NO: 24). […] Single stranded DNA was bound poorly by p53 and E1 NLS region peptides.

[7] = test system: single-stranded DNA; test: Binding of NLS peptides to single-stranded DNA
Experimental: as §2

[8] = test system: SV40 DNA replication in HeLa human cell crude extracts; test: SV40 in vitro replication reaction; format: biochemical; set-up: Amount of peptide that completely blocks replication: unit not given here; details: for Inhibition of SV40 in vitro DNA replication: 30 μl reactions, with T-ag
Experimental: DNA replication reactions. SV40 in vitro replication reactions were conducted as described by Wobbe et al 1985, Proc. Natl. Acad. Sci. USA 82:5710-5714 (see also, Bullock, P. A., et al., 1998, p. 223-243. In S. Cotterill (ed.), Eukaryotic DNA Replication; A practical Approach, Oxford University Press, Oxford). Reaction mixtures (30 μl) contained 7 mM MgCl2, 0.5 mM DTT, 4 mM ATP, 40 mM creatine phosphate (di-Tris salt pH7.7), 1.4 μg of creatine phosphokinase, 12.5 μg/ml pSV01ΔEP, dATP, dGTP, and dTTP (100 μM each), CTP, GTP, and UTP (200 μM each), [α-^32p] dCTP (20 μM, about 5 cpm/fmol) and the indicated peptides.

ADSQHSTPPKKKR (Virus; Host Macaca mulatta; DOMAIN (1)..(13) Domain of SV40 T-Antigen Protein (118)...(130)) [peptide 213, 13-mer of SV40 T-ag centered on Thr124]
Peptide/DNA complex formation in peptide band shift [1]: bound to the 64 bp enhancer control
Peptide/DNA complex formation in peptide band shift ([1]; listed as peptide T-213): able to bind to the 64-bp enhancer control
Binding to DNA in filter binding assay ([2]; high peptide concentrations (1 mM and 2 mM)): saturation of binding was observed
Binding to DNA in filter binding assay ([2]; peptide 0.5 mM): bound relatively poorly
Binding to DNA in filter binding assay ([2]; peptide 0.5 mM to 2 mM, replication conditions, pBR322 competitor): binds to DNA
Binding to DNA in filter binding assay ([2]; peptide 0.5 mM to 2 mM, replication conditions, pBR322 competitor, listed as peptide T-213): able to bind to DNA
Effect on ATPase of T-ag [3]: inhibited the ATPase of T-ag
Peptide/DNA complex formation in peptide band shift [4]: found to bind to DNA
Peptide/DNA complex formation in peptide band shift ([4]; listed as T-213): Mobility shifts are seen
Peptide/DNA complex formation in peptide band shift ([4]; listed as peptide T-213): binds to DNA
Effect on T-ag oligomerization, mutant set (FIG. 11 Panel B) ([5]; listed as SEQ ID NO: 3): complete inhibition of oligomerization
Effect on T-ag oligomerization, mutant set (FIG. 11 Panel B) ([5]; listed as peptide T-213): inhibited T-ag oligomerization
Effect on T-ag oligomerization ([5]; peptide final concentration 0.5 mM): inhibited T-ag assembly events
Effect on T-ag oligomerization (hexamer and double hexamer formation) [5]: inhibited both hexamer and double hexamer formation
Effect on T-ag oligomerization (hexamer and double hexamer formation) ([5]; listed as peptide T-213): formation of the standard hexamer and double hexamer protein was inhibited

KRKVLGSSQNSSGSEASETPVKRRK [BP-E125]
Binding to DNA in filter binding assay, E1 peptides ([2]; low peptide concentration 0.25 mM): better DNA binder than peptide 217
Binding to DNA in filter binding assay, E1 peptides ([2]; low peptide concentration 0.25 mM, listed as peptide E1-P225): binds at a relatively low concentration of peptide
Binding to DNA in filter binding assay, E1 peptides ([2]; peptide 0.25 mM and 0.5 mM): binds to DNA at a lower concentration than does peptide 217
Binding to DNA in filter binding assay, E1 peptides ([2]; peptide 0.25 mM and 0.5 mM, listed as BP-E1): bound to DNA
Binding to DNA in filter binding assay, E1 peptides ([2]; peptide 0.25 mM and 0.5 mM, listed as SEQ ID NO: 2): best DNA binder
Binding to DNA in filter binding assay, E1 peptides ([2]; peptide 0.25 mM and 0.5 mM, listed as peptide E1-P225): found to bind to DNA
Effect on ATPase of T-ag [3]: blocked the degradation of ATP by T-ag
Binding to double-stranded DNA [6]: bind to double-stranded DNA
Binding to single-stranded DNA [7]: bound poorly
DNA binding seen in EMSA without cross-linking ([4]; listed as SEQ ID NO: 2): does not require cross-linking with glutaraldehyde
DNA binding seen in EMSA without cross-linking ([4]; listed as peptide E1-225): successful EMSA experiments
Concentration of peptide that completely blocked viral DNA replication [8]: about 600 μM
Inhibition of SV40 in vitro DNA replication [8]: at all concentrations tested inhibited; also recorded: inhibits in vitro DNA replication reactions
Inhibition of SV40 in vitro DNA replication ([8]; listed as SEQ ID NO: 2): best inhibitor of DNA replication
Amount of peptide that completely blocks replication ([8]; added to a reaction): 20

TKRALPNNTSSSPQPKKKPL (DOMAIN (1)..(20) Domain of p53 (304)...(323); listed as Homo sapiens) [SEQ ID NO: 1, peptide from the NLS/Cdk region of human p53]
Binding to double-stranded DNA [6]: bind to double-stranded DNA; also recorded: binds to double-stranded
Binding to single-stranded DNA [7]: bound poorly; also recorded: not single-stranded DNA
